Test results: ChEMBL document CHEMBL5352439, “Design, synthesis, biological evaluation and molecular docking study of novel urea-based benzamide derivatives as potent poly(ADP-ribose) polymerase-1 (PARP-1) inhibitors” (Eur J Med Chem, 2022)

Legend:
MDA-MB-231 [1] = assay: Antiproliferative activity against human MDA-MB-231 cells assessed as inhibition of cell growth at 20 uM incubated for 48 hrs by MTT assay; type: functional
HCT-116 [2] = assay: Antiproliferative activity against human HCT-116 cells assessed as inhibition of cell growth at 20 uM incubated for 48 hrs by MTT assay; type: functional
HeLa [3] = assay: Antiproliferative activity against human HeLa cells assessed as inhibition of cell growth at 20 uM incubated for 48 hrs by MTT assay; type: functional
A549 [4] = assay: Antiproliferative activity against human A549 cells assessed as inhibition of cell growth at 20 uM incubated for 48 hrs by MTT assay; type: functional
A-375 [5] = assay: Antiproliferative activity against human A-375 cells assessed as inhibition of cell growth at 20 uM incubated for 48 hrs by MTT assay; type: functional
HCT-116 [6] = assay: Antiproliferative activity against human HCT-116 cells assessed as inhibition of cell growth incubated for 48 hrs by MTT assay; type: functional, cell-based; settings: HCT-116, 48 h
MDA-MB-231 [7] = assay: Antiproliferative activity against human MDA-MB-231 cells assessed as inhibition of cell growth incubated for 48 hrs by MTT assay; type: functional, cell-based; settings: MDA-MB-231, 48 h
HeLa [8] = assay: Antiproliferative activity against human HeLa cells assessed as inhibition of cell growth incubated for 48 hrs by MTT assay; type: functional, cell-based
A549 [9] = assay: Antiproliferative activity against human A549 cells assessed as inhibition of cell growth incubated for 48 hrs by MTT assay; type: functional, cell-based; settings: A549, 48 h
A-375 [10] = assay: Antiproliferative activity against human A-375 cells assessed as inhibition of cell growth incubated for 48 hrs by MTT assay; type: functional, cell-based; settings: A-375, 48 h
L02 = assay: Antiproliferative activity against human L02 cells assessed as inhibition of cell growth […] incubated for 48 hrs by MTT assay; type: functional, cell-based; settings: L02, 48 h
HCT-116 [11] = assay: Inhibition of cell migration in human HCT-116 cells at 25 uM incubated for 24 hrs by wound healing assay (reference value: 32.0 %); type: functional
HCT-116 [12] = assay: Inhibition of cell migration in human HCT-116 cells at 25 uM incubated for 48 hrs by wound healing assay (reference value: 42.8 %); type: functional

IC50 (HCT-116 [6])	IC50 (MDA-MB-231 [7])	IC50 (HeLa [8])	IC50 (A549 [9])	IC50 (A-375 [10])	SMILES	inhibition at 20 µM (MDA-MB-231 [1])	inhibition at 20 µM (HCT-116 [2])	inhibition at 20 µM (HeLa [3])	inhibition at 20 µM (A549 [4])	inhibition at 20 µM (A-375 [5])	IC50 (L02)	inhibition at 25 µM (HCT-116 [11])	inhibition at 25 µM (HCT-116 [12])
–	–	–	–	–	NC(=O)c1ccccc1NCc1ccc(NC(=O)Nc2ccccc2)cc1	45.2%	41.2%	32.3%	29%	35%	–	–	–
–	–	–	–	–	NC(=O)c1ccccc1OCc1ccc(NC(=O)Nc2cccc(F)c2)cc1	36.2%	43%	33.7%	28.6%	36.9%	–	–	–
11.3 µM	16.1 µM	34 µM	15.6 µM	25.4 µM	NC(=O)c1ccccc1NCc1cccc(NC(=O)Nc2cccc(Cl)c2)c1	70.9%	84%	44.4%	85.3%	75.7%	–	–	–
–	–	–	–	–	NC(=O)c1ccccc1OCc1ccccc1NC(=O)Nc1cccc(Br)c1	27.3%	40.4%	42.5%	10.1%	31.7%	–	–	–
–	–	–	–	–	NC(=O)c1ccccc1OCc1ccccc1NC(=O)Nc1ccccc1	30.3%	13.3%	36%	33%	21.7%	–	–	–
–	–	–	–	–	Cc1cccc(NC(=O)Nc2ccc(CNc3ccccc3C(N)=O)cc2)c1	50.5%	33.7%	39.6%	2.12%	14.3%	–	–	–
13.1 µM	20.5 µM	12.1 µM	19.9 µM	25.4 µM	NC(=O)c1ccccc1NCc1ccc(NC(=O)Nc2cccc(Cl)c2)cc1	47.3%	63.6%	76.5%	52.6%	58.3%	–	–	–
–	–	–	–	–	Cc1cccc(NC(=O)Nc2ccc(COc3ccccc3C(N)=O)cc2)c1	42.2%	24%	37.5%	10%	23.7%	–	–	–
–	–	–	–	–	COc1cccc(NC(=O)Nc2ccccc2CNc2ccccc2C(N)=O)c1	37.7%	45.3%	< 1%	13.1%	35.4%	–	–	–
–	–	–	–	–	NC(=O)c1ccccc1OCc1cccc(NC(=O)Nc2ccccc2)c1	15%	71.1%	41%	54.7%	40.6%	–	–	–
–	–	–	–	–	NC(=O)c1ccccc1OCc1cccc(NC(=O)Nc2cccc(F)c2)c1	57.7%	32.6%	40.1%	17%	17.5%	–	–	–
25.3 µM	24.7 µM	29.3 µM	26.8 µM	37 µM	Cc1cccc(NC(=O)Nc2cccc(CNc3ccccc3C(N)=O)c2)c1	57.9%	76.2%	58%	58.3%	42.4%	–	–	–
16.1 µM	24.9 µM	15.2 µM	25.8 µM	26.7 µM	NC(=O)c1ccccc1OCc1ccc(NC(=O)Nc2cccc(Cl)c2)cc1	40.1%	74%	66.1%	46.6%	54.2%	–	–	–
–	–	–	–	–	NC(=O)c1ccccc1OCc1ccccc1NC(=O)Nc1cccc(F)c1	40.4%	18.9%	< 1%	< 1%	22.5%	–	–	–
–	–	–	–	–	NC(=O)c1ccccc1OCc1ccccc1NC(=O)Nc1cccc(Cl)c1	30.2%	72.4%	32.7%	35.4%	34.1%	–	–	–
–	–	–	–	–	Cc1cccc(NC(=O)Nc2ccccc2COc2ccccc2C(N)=O)c1	37.8%	80%	< 1%	20.6%	< 1%	–	–	–
–	–	–	–	–	NC(=O)c1ccccc1NCc1ccc(NC(=O)Nc2cccc(F)c2)cc1	34.6%	27%	27.4%	8.3%	36.8%	–	–	–
14.2 µM	21.6 µM	21.9 µM	41.5 µM	29.8 µM	COc1cccc(NC(=O)Nc2ccc(CNc3ccccc3C(N)=O)cc2)c1	50%	82.3%	66.8%	59.3%	50.8%	–	–	–

IC50 (HCT-116 [6])	IC50 (MDA-MB-231 [7])	IC50 (HeLa [8])	IC50 (A549 [9])	IC50 (A-375 [10])	SMILES	inhibition at 20 µM (MDA-MB-231 [1])	inhibition at 20 µM (HCT-116 [2])	inhibition at 20 µM (HeLa [3])	inhibition at 20 µM (A549 [4])	inhibition at 20 µM (A-375 [5])	IC50 (L02)	inhibition at 25 µM (HCT-116 [11])	inhibition at 25 µM (HCT-116 [12])
–	–	–	–	–	NC(=O)c1ccccc1OCc1ccc(NC(=O)Nc2ccccc2)cc1	45.5%	34.2%	20.1%	24.3%	37.3%	–	–	–
–	–	–	–	–	COc1cccc(NC(=O)Nc2cccc(COc3ccccc3C(N)=O)c2)c1	38.8%	36.8%	33.1%	15.8%	29.9%	–	–	–
–	–	–	–	–	NC(=O)c1ccccc1NCc1cccc(NC(=O)Nc2ccccc2)c1	51.2%	64.6%	49.8%	66.2%	36.9%	–	–	–
12.3 µM	21.2 µM	12.7 µM	12.4 µM	28.5 µM	NC(=O)c1ccccc1OCc1cccc(NC(=O)Nc2cccc(Cl)c2)c1	65.2%	83.3%	77.6%	85%	63.1%	–	–	–
–	–	–	–	–	COc1cccc(NC(=O)Nc2cccc(CNc3ccccc3C(N)=O)c2)c1	59.1%	30.2%	27%	< 1%	25%	–	–	–
–	–	–	–	–	Cc1cccc(NC(=O)Nc2ccccc2CNc2ccccc2C(N)=O)c1	17.9%	71.9%	< 1%	1.8%	34%	–	–	–
–	–	–	–	–	NC(=O)c1ccccc1NCc1ccccc1NC(=O)Nc1cccc(Br)c1	19.2%	29.1%	15.5%	36.1%	38.2%	–	–	–
–	–	–	–	–	NC(=O)c1ccccc1NCc1cccc(NC(=O)Nc2cccc(F)c2)c1	58.9%	45.6%	28.9%	< 1%	17.9%	–	–	–
–	–	–	–	–	NC(=O)c1ccccc1NCc1ccccc1NC(=O)Nc1ccccc1	40.9%	83.3%	< 1%	17.7%	< 1%	–	–	–
–	–	–	–	–	COc1cccc(NC(=O)Nc2ccccc2COc2ccccc2C(N)=O)c1	37.3%	70.2%	26.5%	< 1%	33.1%	–	–	–
27.3 µM	24.8 µM	27.7 µM	31.6 µM	12.7 µM	O=C(c1cc(Cc2n[nH]c(=O)c3ccccc23)ccc1F)N1CCN(C(=O)C2CC2)CC1 [OLAPARIB]	–	–	–	–	–	60.7 µM	25.8%	33.1%
17.6 µM	27.4 µM	17.6 µM	26.8 µM	13.4 µM	NC(=O)c1ccccc1OCc1ccc(NC(=O)Nc2cccc(Br)c2)cc1	46.1%	62.2%	60.4%	42.4%	54%	–	–	–
–	–	–	–	–	Cc1cccc(NC(=O)Nc2cccc(COc3ccccc3C(N)=O)c2)c1	3.6%	66.5%	48.6%	57.7%	43.7%	–	–	–
–	–	–	–	–	NC(=O)c1ccccc1NCc1ccccc1NC(=O)Nc1cccc(Cl)c1	36.2%	44.3%	7.53%	52.6%	30%	–	–	–
10.4 µM	14.4 µM	14 µM	11.8 µM	19.7 µM	NC(=O)c1ccccc1NCc1ccc(NC(=O)Nc2cccc(Br)c2)cc1	67.2%	72.5%	71.5%	82.2%	67.2%	–	–	–
–	–	–	–	–	COc1cccc(NC(=O)Nc2ccc(COc3ccccc3C(N)=O)cc2)c1	53.4%	56.7%	21%	33.1%	33.1%	–	–	–
–	–	–	–	–	NC(=O)c1ccccc1NCc1ccccc1NC(=O)Nc1cccc(F)c1	52.1%	40.5%	44.6%	< 1%	28.3%	–	–	–
